One data set has as its target EGFR (Homo sapiens, UniProt P00533). As to the kind of experiment: In vitro EGFR tyrosine kinase inhibitory assay (Z'-LYTE, SelectScreen). It is filed as biochemical. Conditions: 10 µM single dose. As for the experimental part: (§1) The target compounds were evaluated for their in vitro inhibitory activities against EGFR, VEGFR-2, and HDAC6. The EGFR and VEGFR-2 inhibitory assays were performed at Thermo Fischer Scientific, Madison, WI, USA (SelectScreenServices@thermofisher.com). The HDAC inhibitory assays were performed at BPS Bioscience, San Diego, CA, USA (www.bpsbioscience.com). Initially, all of the synthesised target compounds were evaluated for their percent inhibitory activity against EGFR, VEGFR-2, and HDACs at 10 µM single dose concentration, in which their mean percent inhibition is summarised in (Figure 5, Tables 1 and [2]). Representative compounds were evaluated for their percent inhibitory activity against EGFR and VEGFR-2 at 6 different concentrations (0.1 nM, 1 nM, 10 nM, 100 nM, 1 µM, 10 µM) to subsequently calculate their IC50 values (Table 3). Additionally, all of the synthesised target compounds were submitted to the National Cancer Institute “NCI” Bethesda, Maryland, USA (www.dtp.nci.nih.gov), to evaluate theirs in vitro antiproliferative activities against NCI 60- cancer cell line panel.
(§2) In vitro enzyme inhibition determination for the synthesised compounds was carried out in Thermo Fischer Scientific, Madison, WI, USA (SelectScreenServices@thermofisher.com). The EGFR and VEGFR-2 tyrosine kinase % inhibitory activity at a single-dose concentration of 10 µM was performed initially then representative compounds were evaluated at single-dose concentrations of (0.1 nM, 1 nM, 10 nM, 100 nM, 1 µM) using ZYLTE technology. A fluorescence-based, coupled-enzyme format is employed in the biochemical assay and depends on the sensitivity of proteolytic cleavage to non-phosphorylated and phosphorylated peptides. Then IC50 values for selected compounds were determined by GraphPad Prism at Misr international university.

Another data set concerns the target VEGFR-2 (Homo sapiens, UniProt P35968). Description: In vitro VEGFR-2 tyrosine kinase inhibitory assay (Z'-LYTE, SelectScreen). It counts as biochemical. How it is done:
as §1, §2

Another data set deals with Hela nuclear extracts. Description: Hela nuclear extract HDAC inhibitor assay (BPS Bioscience). It counts as biochemical. Conditions: 10 µM. How it is done: The purpose of the study is to determine the effects of twenty compounds from Misr International University on the enzymatic activities of hela nuclear extracts using an in vitro […]
7a Solution 10mM DMSO 10 10 % DMSO in
7b Solution 10mM DMSO 10 10 % DMSO in
7d Solution 10mM DMSO 10 10 % DMSO in
2.3 Experimental Conditions
2.3.1 Enzymes and Substrates
Assay Catalog # Substrate
Hela Nuclear Exctract 50053 10 µM HDAC Substrate 3
For the hela nuclear extracts, hela cells were grown to 90 % confluency. Hela nuclear extracts were prepared from the Nuclear Extraction Kit from abcam (Catalog # ab113474). The final total protein concentration was calculated to be 2.4 µg/µl. From this, the hela nuclear extracts was diluted 20-fold in HDAC assay buffer and 5 µl of the dilution was added to a 50 µl reaction.
The compounds are dissolved in DMSO. A series of dilutions of the compounds were prepared with 10% DMSO in HDAC assay buffer and 5 µl of the dilution was added to a 50 µl reaction so that the final concentration of DMSO is 1 % in all of […]
The enzymatic reactions for the hela nuclear extract were conducted in duplicate at 37 °C for 60 minutes in a 50 µl mixture containing HDAC assay buffer, 5 µg BSA, an HDAC substrate (see 2.3.1), hela nuclear extract, and a test compound (see 2.2).
After enzymatic reactions, 50μl of 2 x HDAC Developer was added to each well for the hela nuclear extract and the plate was incubated at room temperature for an additional 15 […]
Fluorescence intensity was measured at an excitation of 360 nm and an emission of 460 nm using a Tecan Infinite M1000 microplate reader.
Hela nuclear extract activity assays were performed in duplicates at each concentration.
The fluorescent intensity data were analyzed using the computer software, Graphpad Prism. In the absence of the compound, the fluorescent intensity (Ft) in each data set was defined as 100% activity. In the absence of hela nuclear extract, the fluorescent intensity (Fb) in each data set was defined as 0% activity. The percent activity in the presence of each compound was calculated according to the following equation: %activity = (F-Fb)/(Ft-Fb), where F= the fluorescent intensity in the presence of the compound.
The values of percentage activity were plotted on a bar graph.

For the next data set, the system named is ACHN. Description: NCI one-dose screen. It counts as cell-based, human. Conditions: Renal ACHN, 10 µM single dose. As for the experimental part:
(§3) All of the synthesised structures were selected and submitted to NCI based on computer modelling techniques and the degree of diversity of structures for the evaluation of their antiproliferative activity. The 20 synthesised compounds were selected with their respective NCI codes [NCS D-820157- NCS D-820176] for the inhibition percent assay at an initial single dose of 10 μM on the full NCI 60 cell panel, where the mean graph of the percent growth for all compounds on the full NCI cell panel is evaluated, compared to the untreated control cells (Supplementary Material). In vitro cell line inhibition % of all synthesised compounds is represented in (Table 1 of Supplementary Material).
(§4) All of the synthesised compounds (20) were submitted to NCI and selected for in vitro anticancer assay against a panel of 60 cancer cell lines. The methodology of assay and calculations is as reported.

Another data set deals with MCF7. As to the kind of experiment: NCI one-dose screen. It is filed as cell-based, human. As to conditions: for Growth Percent: Breast MCF7, 10 µM single dose. As for the experimental part: as §3, §4
For the next data set, the system named is MDA-MB-231/ATCC. Description: NCI one-dose screen. It is filed as cell-based, human. As to conditions: Breast MDA-MB-231/ATCC, 10 µM single dose. As for the experimental part: as §3, §4
The subject of another data set is MDA-MB-468. As to the kind of experiment: NCI one-dose screen. It counts as cell-based, human. Conditions: Breast MDA-MB-468, 10 µM single dose. How it is done: as §3, §4
The next data set has as its system NCI-H460. Description: NCI one-dose screen. It is filed as cell-based, human. As to conditions: NSCLC NCI-H460, 10 µM single dose. As for the experimental part:
as §3, §4

A further data set deals with NCI/ADR-RES. As to the kind of experiment: NCI one-dose screen. It counts as cell-based, human. Conditions: Ovarian NCI/ADR-RES, 10 µM single dose. As for the experimental part: as §3, §4
Another data set has as its system OVCAR-8. As to the kind of experiment: NCI one-dose screen. It is filed as cell-based, human. Conditions: Ovarian OVCAR-8, 10 µM single dose. How it is done:
as §3, §4

The test system of another data set is SF-295. Description: NCI one-dose screen. It counts as cell-based, human. As to conditions: CNS SF-295, 10 µM single dose. How it is done:
as §3, §4

Another data set deals with U251. As to the kind of experiment: NCI one-dose screen. It is filed as cell-based, human. Conditions: for Growth Percent: CNS U251, 10 µM single dose. How it is done:
as §3, §4

A further data set relates to UACC-257. Description: NCI one-dose screen. It counts as cell-based, human. As to conditions: Melanoma UACC-257, 10 µM single dose. As for the experimental part: as §3, §4

Several values for one entry are separate records, joined by “and”; a condition that tells them apart may be missing. Equal entries are not always repeated. Some results are limits rather than exact numbers.

VEGFR-2, sequence (P35968 20-1356): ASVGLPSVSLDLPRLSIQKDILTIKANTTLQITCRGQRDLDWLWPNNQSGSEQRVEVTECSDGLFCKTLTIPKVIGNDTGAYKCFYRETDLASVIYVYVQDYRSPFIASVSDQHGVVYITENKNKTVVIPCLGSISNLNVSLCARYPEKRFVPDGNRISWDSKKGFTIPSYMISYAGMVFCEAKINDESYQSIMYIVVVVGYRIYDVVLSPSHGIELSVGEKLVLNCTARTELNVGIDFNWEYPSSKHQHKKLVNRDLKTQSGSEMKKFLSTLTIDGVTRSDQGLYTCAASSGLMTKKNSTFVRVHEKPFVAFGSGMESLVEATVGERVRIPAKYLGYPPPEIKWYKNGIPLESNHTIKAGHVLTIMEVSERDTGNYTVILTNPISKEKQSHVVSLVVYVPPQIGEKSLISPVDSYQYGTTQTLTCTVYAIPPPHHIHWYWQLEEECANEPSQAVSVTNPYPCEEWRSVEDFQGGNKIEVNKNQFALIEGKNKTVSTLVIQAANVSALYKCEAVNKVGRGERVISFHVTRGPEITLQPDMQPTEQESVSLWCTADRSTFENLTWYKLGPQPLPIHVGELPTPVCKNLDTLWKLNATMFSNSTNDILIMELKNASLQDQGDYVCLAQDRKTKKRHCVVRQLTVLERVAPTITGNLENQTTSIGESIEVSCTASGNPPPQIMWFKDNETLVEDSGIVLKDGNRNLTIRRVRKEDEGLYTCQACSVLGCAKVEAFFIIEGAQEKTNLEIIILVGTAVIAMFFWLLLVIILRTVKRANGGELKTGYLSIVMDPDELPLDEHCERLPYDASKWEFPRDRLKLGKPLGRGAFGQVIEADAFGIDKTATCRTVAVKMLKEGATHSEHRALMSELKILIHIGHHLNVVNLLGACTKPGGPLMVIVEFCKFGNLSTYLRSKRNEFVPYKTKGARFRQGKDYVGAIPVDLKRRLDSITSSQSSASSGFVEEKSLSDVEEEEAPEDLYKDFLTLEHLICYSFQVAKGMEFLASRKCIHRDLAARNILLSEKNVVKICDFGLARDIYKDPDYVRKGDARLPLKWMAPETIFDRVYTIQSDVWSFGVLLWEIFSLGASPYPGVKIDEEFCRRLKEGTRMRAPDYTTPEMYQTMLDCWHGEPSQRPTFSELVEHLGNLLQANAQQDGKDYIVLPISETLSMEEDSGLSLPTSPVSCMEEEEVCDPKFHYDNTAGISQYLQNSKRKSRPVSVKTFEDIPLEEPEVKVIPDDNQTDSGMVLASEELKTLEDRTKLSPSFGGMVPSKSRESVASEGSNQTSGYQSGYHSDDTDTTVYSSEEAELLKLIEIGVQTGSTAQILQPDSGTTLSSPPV
EGFR, sequence (P00533 25-1210): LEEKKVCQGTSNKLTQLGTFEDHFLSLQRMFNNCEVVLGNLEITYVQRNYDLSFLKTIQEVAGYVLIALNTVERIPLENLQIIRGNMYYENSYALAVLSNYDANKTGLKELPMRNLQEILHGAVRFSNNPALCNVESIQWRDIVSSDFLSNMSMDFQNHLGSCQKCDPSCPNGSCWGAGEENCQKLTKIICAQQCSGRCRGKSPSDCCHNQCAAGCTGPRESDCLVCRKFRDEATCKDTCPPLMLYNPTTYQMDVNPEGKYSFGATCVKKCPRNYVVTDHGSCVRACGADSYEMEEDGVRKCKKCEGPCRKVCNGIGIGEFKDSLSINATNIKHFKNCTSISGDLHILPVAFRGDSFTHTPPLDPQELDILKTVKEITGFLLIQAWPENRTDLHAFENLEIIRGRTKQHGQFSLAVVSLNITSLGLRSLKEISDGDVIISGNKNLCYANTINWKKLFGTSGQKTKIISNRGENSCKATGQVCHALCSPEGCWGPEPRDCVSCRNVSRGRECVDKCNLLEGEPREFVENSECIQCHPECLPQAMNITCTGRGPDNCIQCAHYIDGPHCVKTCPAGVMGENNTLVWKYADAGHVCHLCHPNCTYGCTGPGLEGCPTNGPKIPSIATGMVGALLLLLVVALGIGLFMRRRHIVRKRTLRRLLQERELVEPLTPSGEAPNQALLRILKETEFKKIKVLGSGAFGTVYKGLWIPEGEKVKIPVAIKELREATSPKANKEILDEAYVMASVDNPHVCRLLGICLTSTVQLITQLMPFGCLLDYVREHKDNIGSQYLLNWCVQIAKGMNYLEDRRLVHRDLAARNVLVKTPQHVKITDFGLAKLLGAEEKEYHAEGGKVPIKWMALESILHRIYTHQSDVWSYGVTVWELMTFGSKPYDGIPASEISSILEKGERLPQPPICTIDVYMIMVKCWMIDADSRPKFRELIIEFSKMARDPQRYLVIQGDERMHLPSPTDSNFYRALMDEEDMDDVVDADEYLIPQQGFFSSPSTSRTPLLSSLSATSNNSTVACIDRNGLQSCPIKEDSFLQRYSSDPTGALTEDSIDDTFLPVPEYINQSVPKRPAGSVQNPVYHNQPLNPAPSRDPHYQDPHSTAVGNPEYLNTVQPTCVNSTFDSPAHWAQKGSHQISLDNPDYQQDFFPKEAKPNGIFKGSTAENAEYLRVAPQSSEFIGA

`Cc1c(C(=O)NO)sc2ncnc(Nc3ccc(NC(=O)Nc4ccccc4)cc3)c12` [Compound 7a, 1–(4-(6-(hydroxycarbamoyl)-5-methylthieno[2,3-d]pyrimidin-4-ylamino)phenyl)-3-phenylurea] gave a melting point above 200 °C. Also, on EGFR, the inhibition at 10 µM was found to be 48%. Further, the inhibition at 10 µM on VEGFR-2 (10 µM single dose) was 89%. For the same molecule, the “% Inhibition Hela Nuclear Extracts” value in the data set with Hela nuclear extracts came out at 2%. Also, in the data set with ACHN, the “Growth Percent” value is 102.3% and 102.35%. The “Growth Percent” value in the data set on MCF7 was 90.7% and 90.78%. The “Growth Percent” value in the data set on MDA-MB-231/ATCC was 91.1% and 91.12%. In the data set on MDA-MB-468, the “Growth Percent” value is 111.9% and 111.92%. Moreover, in the data set with NCI-H460, the “Growth Percent” value is 100.3% and 100.39%. Besides, in the data set on NCI/ADR-RES, the “Growth Percent” value was 102.1% and 102.16%. Moreover, the “Growth Percent” value in the data set with OVCAR-8 is 106.3% and 106.33%. For the same molecule, the “Growth Percent” value in the data set with SF-295 was 96.2% and 96.23%. Besides, the “Growth Percent” value in the data set on U251 is 89.3% and 89.34%. Moreover, in the data set on UACC-257, the “Growth Percent” value was 115.5% and 115.56%.

Molecule `COc1cccc(NC(=O)Nc2ccc(Nc3ncnc4sc(C(=O)NO)c(C)c34)cc2)c1` [Compound 7b, 1–(4-(6-(hydroxycarbamoyl)-5-methylthieno[2,3-d]pyrimidin-4-ylamino)phenyl)-3–(3-methoxyphenyl)urea] showed a melting point above 200 °C. On EGFR, the inhibition at 10 µM was found to be 39%. Besides, the inhibition at 10 µM against VEGFR-2 (10 µM single dose) amounted to 78%. In the data set with Hela nuclear extracts, the “% Inhibition Hela Nuclear Extracts” value is 2%. The “Growth Percent” value in the data set on ACHN was 103.7% and 103.71%. In addition, in the data set on MCF7, the “Growth Percent” value was 95.2% and 95.27%. In addition, in the data set with MDA-MB-231/ATCC, the “Growth Percent” value was 99.5% and 99.59%. The “Growth Percent” value with MDA-MB-468 is 98.8% and 98.87%. Further, the “Growth Percent” value with NCI-H460 was 100.7% and 100.73%. Further, the “Growth Percent” value in the data set with NCI/ADR-RES was 97.6% and 97.67%. In addition, the “Growth Percent” value with OVCAR-8 is 96.6% and 96.69%. The “Growth Percent” value in the data set on SF-295 is 94.5% and 94.51%. In the data set on U251, the “Growth Percent” value is 101.4% and 101.41%. Also, in the data set with UACC-257, the “Growth Percent” value is 100.8% and 100.87%.

As for `Cc1c(C(=O)NO)sc2ncnc(Nc3ccc(NC(=O)Nc4cccc(C(F)(F)F)c4)cc3)c12` [Compound 7c, 1–(4-(6-(hydroxycarbamoyl)-5-methylthieno[2,3-d]pyrimidin-4-ylamino)phenyl)-3–(3-(trifluoromethyl)phenyl)urea], the melting point is 285 °C. Moreover, the inhibition at 10 µM against EGFR is 11%. The inhibition at 0.0001 µM on VEGFR-2 (0.1 nM compound, 10 μM ATP, read-out: % Inhibition mean, KDR (VEGFR2)) came out at 6%. Also, the inhibition at 0.001 µM on VEGFR-2 (1 nM compound, 10 μM ATP, read-out: % Inhibition mean, KDR (VEGFR2)) stood at 6%. Also, at VEGFR-2 (10 nM compound, 10 μM ATP, read-out: % Inhibition mean, KDR (VEGFR2)), the inhibition at 0.01 µM stood at 2%. In addition, the inhibition at 0.1 µM at VEGFR-2 (100 nM compound, 10 μM ATP, read-out: % Inhibition mean, KDR (VEGFR2)) worked out at 36%. The inhibition at 1 µM at VEGFR-2 (1000 nM compound, 10 μM ATP, read-out: % Inhibition mean, KDR (VEGFR2)) was determined as 90%. Moreover, on VEGFR-2 (10 µM single dose), the “Mean % inhibition VEGFR-2” value was 100% and the inhibition at 10 µM stood at 104%. In addition, the IC50 on VEGFR-2 (read-out: IC50 in enzyme assays VEGFR-2) is 191 nM. Besides, the “% Inhibition Hela Nuclear Extracts” value in the data set with Hela nuclear extracts is given as 3%. Moreover, the “Growth Percent” value with ACHN is reported as 94.84%. The “Growth Percent” value in the data set with MCF7 was 88.4% and 88.42%. Besides, the inhibition at 10 µM in the data set with MCF7 (Homo sapiens, breast MCF7, 10 μM) stood at 11.6%. Also, the “Growth Percent” value in the data set on MDA-MB-231/ATCC was 95.2% and 95.26%. Also, the “Growth Percent” value with MDA-MB-468 is given as 109.16%. The “Growth Percent” value in the data set on NCI-H460 was 101.7% and 101.73%. The “Growth Percent” value in the data set on NCI/ADR-RES was 97.6% and 97.66%. The “Growth Percent” value with OVCAR-8 is 100.4% and 100.41%. Moreover, the “Growth Percent” value in the data set on SF-295 is 95.1% and 95.16%. Also, the “Growth Percent” value with U251 was 73.1% and 73.13%. Besides, the inhibition at 10 µM in the data set with U251 (Homo sapiens, U-251, CNS U251, 10 μM) is 26.9%. The “Growth Percent” value in the data set with UACC-257 is 106.3% and 106.33%.

A word on the inhibition: it is the drop in the measured response relative to a control, in per cent. In general, melting point refers to the temperature, or range, at which the solid turns liquid. For orientation: IC50 means the midpoint of a concentration-inhibition curve.
